The text below walks through data of the OligoGym collection.

Several values for one entry are separate records, joined by “and”; a condition that tells them apart may be missing. Identical values can stand only once. After the bases stand the sugars from the 5' end (letter, count) and the backbone: PS all phosphorothioate, else s phosphorothioate and o phosphodiester by linkage. Methylation of C is not given here. e = 2'-O-(2-methoxyethyl) (MOE); k = constrained ethyl (cEt); d = 2'-deoxy (DNA)

In one data set the target is IRF4. Conditions: ASO, MM.1R, 0.0625 µM.
Regarding AACCTTAAGCTATTTG (sugars k3 d10 k3, PS), the target mRNA inhibition is -10%. For GAAAATCTGGATGAGC (sugars k3 d10 k3, PS), the target mRNA inhibition was 7%.

Consider TCATTTACTGTTACCG (sugars k3 d10 k3, PS), for which the target mRNA inhibition came out at 6%.

The data set is the same for the next values; noted with them: ASO, MM.1R, 0.074 µM.
For GAAAATCTGGATGAGC (sugars k3 d10 k3, PS), the target mRNA inhibition is 11%.

Staying with this data set, now noted: ASO, MM.1R, 0.222 µM.
For the sequence GAAAATCTGGATGAGC (sugars k3 d10 k3, PS), the target mRNA inhibition was -1%.

The same data set, now with this note: ASO, MM.1R, 0.25 µM.
In the case of AACCTTAAGCTATTTG (sugars k3 d10 k3, PS), the target mRNA inhibition is -5%.

In the case of GAAAATCTGGATGAGC (sugars k3 d10 k3, PS), the target mRNA inhibition worked out at 8%. Regarding TCATTTACTGTTACCG (sugars k3 d10 k3, PS), the target mRNA inhibition amounted to 18%.

Staying with this data set, now noted: ASO, MM.1R, 0.666 µM.
On to GAAAATCTGGATGAGC (sugars k3 d10 k3, PS), for which the target mRNA inhibition was -26%.

The data set is the same for the next values; noted with them: ASO, MM.1R, 1 µM.
On to CCACGAAGATTCAAAA (sugars k3 d10 k3, PS), for which the target mRNA inhibition is -7%. Still for that read-out and setting: under CGTAGTCCCTCCAGCT (sugars k3 d10 k3, PS) stands 27%. As for GTGACTTGCATCCATG (sugars k3 d10 k3, PS), the target mRNA inhibition came to 62%.

Regarding AGTGAGATGCGGAGGT (sugars k3 d10 k3, PS), the target mRNA inhibition came to 65%. As to “TTTATGTTAGCCAATT (sugars k2 d9 e3 k2, PS)”, the target mRNA inhibition was 3% and 21%. With TCTACTGGAGTCAAGC (sugars k3 d10 k3, PS), the target mRNA inhibition amounted to 30%. The same measure, in the same setting: for “TGTGTATTACTCTTAG (sugars kdddddddddkekeke, PS)” the value was 32% and 52%; for “AGTTCATGTAAAGTCT (sugars kdddddddddkekeke, PS)”, 29% and 10%.

AACGAGCCAGTGCACA (sugars k3 d10 k3, PS): the target mRNA inhibition was -1%.

GGAGCTAGTTTTATGT (sugars k3 d10 k3, PS): the target mRNA inhibition was -28%. With TAGTAAGTTCTAGTCG (sugars k3 d10 k3, PS), the target mRNA inhibition is -13%.

For the sequence “CCTCAGTTTGTGAAGC (sugars kkdddddddddkekek, PS)”, the target mRNA inhibition turned out to be 15%. ATTTATAACCGGTAGA (sugars k3 d10 k3, PS): the target mRNA inhibition turned out to be 28%. Still for that read-out and setting: under CAGATTAATAGTAAGT (sugars k3 d10 k3, PS) stands -12%; under “TACTGCTTGAGGTTTT (sugars e1 k2 d9 k2 e2, PS)”, 6%. Turning to “TTCATGTAAAGTCTGC (sugars kdddddddddkekeke, PS)”, the target mRNA inhibition is 9% and 3%. Regarding TCCCATGGTTACTAAT (sugars k3 d10 k3, PS), the target mRNA inhibition was -10%. Consider GCTCATGGCTGATAAT (sugars k3 d10 k3, PS), for which the target mRNA inhibition was -17%. Consider “TGCTTGAGGTTTTCCT (sugars e1 k2 d9 k2 e2, PS)”, for which the target mRNA inhibition was found to be 35%. Consider AGATGCGGAGGTTCCT (sugars k3 d10 k3, PS), for which the target mRNA inhibition came to 32%.

For TAATCTGTATCATGCA (sugars k3 d10 k3, PS), the target mRNA inhibition was determined as 22%. In the case of ATGGCGAGTTGGCACA (sugars k3 d10 k3, PS), the target mRNA inhibition was 49% and 48%. Regarding “AGGCACATCAATGTTT (sugars kddddddddddkekek, PS)”, the target mRNA inhibition came out at 5%. On to GGTGAGAGACGAAAAC (sugars k3 d10 k3, PS), for which the target mRNA inhibition was -16%.

As to GAAAATCTGGATGAGC (sugars k3 d10 k3, PS), the target mRNA inhibition turned out to be 22%. On the same count and under the same terms, for ATTCCAAACCTTAAGC (sugars k3 d10 k3, PS) the value was -1%; for GATGAGATATTCCTCT (sugars k3 d10 k3, PS), -24%.

As to GACTGACAGCCGAAGC (sugars k3 d10 k3, PS), the target mRNA inhibition was determined as 27%.

For GGCGCATAGGTCCTTC (sugars k3 d10 k3, PS), the target mRNA inhibition is -7%. Regarding TGCGGCTCCGGCGACG (sugars k3 d10 k3, PS), the target mRNA inhibition is -20%. As for “GCAGTGATGTCAGGTT (sugars kddddddddddkekek, PS)”, the target mRNA inhibition was 36%. Same read-out and setting: under GTTGGCACAATTCTCT (sugars k3 d10 k3, PS) stands 22% and 16%; under AGCCGAGGCCTCCTTT (sugars k3 d10 k3, PS), -28%. On to TCATTTACTGTTACCG (sugars k3 d10 k3, PS), for which the target mRNA inhibition was 56% and 40%.

Still in this data set, the particulars now being: ASO, MM.1R, 4 µM.
As to AACCTTAAGCTATTTG (sugars k3 d10 k3, PS), the target mRNA inhibition is 48%. Turning to GAAAATCTGGATGAGC (sugars k3 d10 k3, PS), the target mRNA inhibition was found to be 59%. Regarding TCATTTACTGTTACCG (sugars k3 d10 k3, PS), the target mRNA inhibition is 82%.

The data set is the same for the next values; noted with them: ASO, SK-MEL-28, 0.185 µM.
As to CGCAGAGCCAGTAGGG (sugars k3 d10 k3, PS), the target mRNA inhibition is 16% and 4% and 12%.

The same data set, now with this note: ASO, SK-MEL-28, 4 µM.
With GACGACAGCTGCGGAG (sugars k3 d10 k3, PS), the target mRNA inhibition amounted to 45%. Turning to AGCTTGATAAAGGCTG (sugars k3 d10 k3, PS), the target mRNA inhibition was found to be 36%. Consider TCTGAGTGAGCTTGCC (sugars k3 d10 k3, PS), for which the target mRNA inhibition stood at 49%.

As to GTCACAAAGCAATTGA (sugars k3 d10 k3, PS), the target mRNA inhibition worked out at 67%.

On to GGAAGCACTGGCATTG (sugars k3 d10 k3, PS), for which the target mRNA inhibition came to 49%. Consider AGTTGTAAATGAGTCG (sugars k3 d10 k3, PS), for which the target mRNA inhibition is 85%.

Turning to TCCAAGCAATTATTCC (sugars k3 d10 k3, PS), the target mRNA inhibition is 12%. With TGTCACCTGGCAACCA (sugars k3 d10 k3, PS), the target mRNA inhibition stood at 9%. As for GTCCTGCTTGCCCGCG (sugars k4 d8 k4, PS), the target mRNA inhibition was 14%. As to CTAAAGAATGAGGGTC (sugars k3 d10 k3, PS), the target mRNA inhibition turned out to be 62%.

GTATGAGAAACGGCCT (sugars k3 d10 k3, PS): the target mRNA inhibition was found to be 59%. Consider CACAGGCGCGGACGCA (sugars k3 d10 k3, PS), for which the target mRNA inhibition amounted to 14%.

With TTTACTGTTACCGATG (sugars k3 d10 k3, PS), the target mRNA inhibition came to 48%. On to AAGCAAGAGCTTACTG (sugars k3 d10 k3, PS), for which the target mRNA inhibition turned out to be 14%. For the sequence GACATATTTGCTTTGG (sugars k3 d10 k3, PS), the target mRNA inhibition was 58%.

For GAGGTCTTTGGGATTC (sugars k3 d10 k3, PS), the target mRNA inhibition was determined as 74%.

Regarding CGCAGAGCCAGTAGGG (sugars k3 d10 k3, PS), the target mRNA inhibition stood at 67%. Still for that read-out and setting: for TACTAATTCCATAGAG (sugars k3 d10 k3, PS) the value was 26%; for GGCACAGCCGTCCGCC (sugars k3 d10 k3, PS), 11%. Turning to GAGTGTGCAGTTCCGT (sugars k3 d10 k3, PS), the target mRNA inhibition worked out at 67%. Same read-out and setting: for CCGCAGCATCGAACTC (sugars k3 d10 k3, PS) the value was 42%. For the sequence ACCTCAGTTTGTGAAG (sugars k3 d10 k3, PS), the target mRNA inhibition stood at 39%.

As for CCACATAACTCAGGCA (sugars k3 d10 k3, PS), the target mRNA inhibition stood at 70%. As for TCAACAGCAGGTTTTG (sugars k3 d10 k3, PS), the target mRNA inhibition amounted to 41%. The same measure, in the same setting: under ATTTATGCCCTCGCTC (sugars k3 d10 k3, PS) stands 26%; under ACCTGAATAGGAAGAT (sugars k3 d10 k3, PS), 31%; under TTCCAGTGGTGGGTCC (sugars k3 d10 k3, PS), 29%. With GGCCTTGGAGCCCAAA (sugars k3 d10 k3, PS), the target mRNA inhibition came out at 20%. On to TACTCACGAGCACCTC (sugars k3 d10 k3, PS), for which the target mRNA inhibition turned out to be 41%. Take GGAGAAACGAGCCAGT (sugars k3 d10 k3, PS): the target mRNA inhibition was found to be 47%. As for AAGGGTTACGCTTATT (sugars k3 d10 k3, PS), the target mRNA inhibition was determined as 52%. On the same count and under the same terms, under ATAGTAAATATCCTGT (sugars k3 d10 k3, PS) stands 36%. Same read-out and setting: under CCCCAAGGCTACAGGC (sugars k3 d10 k3, PS) stands 25%; under CTAGATTCTCCCTGCA (sugars k3 d10 k3, PS), 34%. With TGGCACCAAGGTCCAG (sugars k3 d10 k3, PS), the target mRNA inhibition was determined as 1%. In the case of GCTCACTAAGCTTGAT (sugars k3 d10 k3, PS), the target mRNA inhibition stood at 56%. For GTGCAGTTCCGTAGTC (sugars k3 d10 k3, PS), the target mRNA inhibition turned out to be 21%. Turning to TTGGACAGAAGGGCAA (sugars k3 d10 k3, PS), the target mRNA inhibition amounted to 29%. As for GTGGCATCATGTAGTT (sugars k3 d10 k3, PS), the target mRNA inhibition came to 27%. On the same count and under the same terms, for TGCTTCAACACACTGT (sugars k3 d10 k3, PS) the value was 3%; for TCCTAACCCTGAGTAT (sugars k3 d10 k3, PS), 27%; for ACCTTTACTTCATTCC (sugars k3 d10 k3, PS), 64%. With CGAAAAGTCAAAATAC (sugars k3 d10 k3, PS), the target mRNA inhibition came out at 0%. The same measure, in the same setting: for CATCAATGATGGCAGT (sugars k3 d10 k3, PS) the value was 50%; for TGAAATGGAGCATCCG (sugars k3 d10 k3, PS), 9%. Still for that read-out and setting: under GGACCTGGTCCAGGTT (sugars k3 d10 k3, PS) stands -2%; under TTTTTCCATATGACCC (sugars k3 d10 k3, PS), 75%; under GTGTGGCTGATCCGGG (sugars k3 d10 k3, PS), 27%. Still for that read-out and setting: for GAAAATCTGGATGAGC (sugars k3 d10 k3, PS) the value was 64%; for ATGACGACTTAAGCTA (sugars k3 d10 k3, PS), 62%; for TGTCAAAGAGCTTGCA (sugars k3 d10 k3, PS), 11%. As for AGCAATTGAAATGGAG (sugars k3 d10 k3, PS), the target mRNA inhibition is 22%. Regarding CCATTGGAGGAGGGTT (sugars k3 d10 k3, PS), the target mRNA inhibition is 32%. AAAAGAGCCGCCACAT (sugars k3 d10 k3, PS): the target mRNA inhibition was 16%. Take AATGTTCAGCTTTTCC (sugars k3 d10 k3, PS): the target mRNA inhibition is 63%.

Still in this data set, the particulars now being: ASO, SK-MEL-28, 5 µM.
For CGCAGAGCCAGTAGGG (sugars k3 d10 k3, PS), the target mRNA inhibition is 56% and 59% and 77%.

The data set is the same for the next values; noted with them: ASO, SK-MEL-28, 15 µM.
As for CGCAGAGCCAGTAGGG (sugars k3 d10 k3, PS), the target mRNA inhibition was 81% and 82% and 91%.
